What was measured:
NCI-H929 xenograft tumor = assay: Pharmacodynamic test: NCI-H929 xenograft tumor in CB-17 SCID mice; type: in vivo
Method: This experiment was performed to evaluate the inhibition effect of the compound of Example 6 and the control example CC-92480 on the growth of human multiple myeloma cell NCI-H929 xenograft tumor in CB-17 SCID mice.
Compound of Example 6; control example CC-92480 (see compound 2 of WO2019014100A1, synthesized according to the method disclosed therein)
Solutions of the compound of Example 6 and the control example CC-92480 were prepared with 5% DMSO+20% PEG400+70% (10% TPGS)+5% (1% HPMC K100LV).
Thirty CB-17 SCID female mice, purchased from Beijing Vital River Laboratory Animal Technology Co., Ltd. (certificate No. 20170011006049, SCXK (Shanghai) 2017-0011), weighing about 19 g at the time of purchase, were bred at 5 mice/cage (in 12/12 hour light/dark cycle, at a constant temperature of 23±1° C. and humidity of 50%-60%) and had free access to food and water.
After adaptive feeding, the CB-17 SCID mice were grouped as follows:
NCI-H929 cells in a logarithmic growth phase were inoculated subcutaneously into the right flank of 30 female CB-17 SCID mice at 5×10^6 cells/mouse/100 μL (containing 50 μL of Matrigel). After 10 days, when the tumor volume of the tumor-bearing mice reached about 200 mm^3, the mice were randomly divided into 3 groups according to the tumor volume and body weight: vehicle control group, CC-92480-1 mpk, compound of Example 6-1 mpk, with 7 mice in each group. The day of grouping was set as Day 0 (D0), and intragastric administration was performed once a day for 11 days (Table 2). For the tumor-bearing mice, the tumor volume was measured with a vernier caliper and the body weight was measured with a balance twice a week, and the data were recorded.
All data were plotted and statistically analyzed using Excel and GraphPad Prism 5 software.
The tumor volume (V) was calculated as follows: V=½×a×b^2, where a and b represent length and width, respectively.
The relative tumor proliferation rate T/C (%)=(T−T0)/(C−C0)×100(%), where T and C are the tumor volume of animals at the end of the experiment in the treatment group and control group, respectively; T0 and C0 are the tumor volume of animals at the beginning of the experiment in the treatment group and control group, respectively.
Tumor growth inhibition TGI (%)=1−T/C (%), and when TGI (%) exceeds 100%, no specific value will be shown, and it is expressed only by >100%.
Tumor regression (%)=[(T0−T)/T0]×100(%).

[1] = Plasma stability in monkey plasma (LC-MS/MS); type: in vitro ADME; conditions: cryopreserved monkey plasma; monkey plasma, 37° C., 1 μM; read-out: T1/2 (min)/monkey
Method: The stability of the compound of Example 6 and the control example CC-92480 after incubation in cryopreserved monkey plasma at 37° C. for 0 min, 15 min, 30 min, 60 min, 120 min, 180 min and 240 min was determined quantitatively by LC-MS/MS.
Compound of Example 6 and control example CC-92480.
Monkey plasma was purchased from Shanghai Medicilon Inc.
A certain amount of the compound of Example 6 was weighed and prepared with DMSO to obtain a 30 mM stock solution. A certain volume of the stock solution was diluted into a solution I at a concentration of 1600 μM with DMSO; and a certain volume of the solution I at 1600 μM was diluted with 50% methanol to obtain a working solution II at a concentration of 16 μM. A 30 mM stock solution, a 1600 μM solution I′, and a 16 μM working solution II′ of CC-92480 were prepared as described above.
5 μL of the working solutions at 16 μM of the compound of Example 6 and the control example CC-92480 were each added to 75 μL of plasma to make the final concentration of the compounds of 1 μM. The samples were incubated under a 37° C. water bath for 0 min, 15 min, 30 min, 60 min, 90 min, 120 min, and 180 min. […] The supernatant was analyzed by LC-MS with a sample injection volume of 2 μL.

N#Cc1ccc(N2CCC(Sc3ccc(COc4cccc5c4CN([C@H]4CCC(=O)NC4=O)C5=O)cn3)CC2)c(F)c1 [Compound 6, (S)-4-(4-((5-(((2-(2,6-dioxopiperidin-3-yl)-1-oxoisoindolin-4-yl)oxy)methyl)pyridin-2-yl)thio)piperidin-1-yl)-3-fluorobenzonitrile]
tumor inhibition rate (TGI) (NCI-H929 xenograft tumor; 1 mg/kg qd, 11 days after administration): > 100%
Mean tumor volume D0 (NCI-H929 xenograft tumor; 1 mg/kg qd, baseline at day of grouping (D0), n=7): 155.4 mm^3
Number of remaining animals/group (NCI-H929 xenograft tumor; 1 mg/kg qd/11d po): 7/7
% tumor regression D11 (NCI-H929 xenograft tumor; 1 mg/kg qd/11d po (i.g.), D11): 88%
Mean tumor volume D11 (NCI-H929 xenograft tumor; 1 mg/kg qd/11d po (i.g.), D11, n=7): 18.6 mm^3
half-life at 1 µM [1]: 806 min
